The results in this text go back to US4393225A, “AI-77 Compounds and pharmaceutically acceptable salts thereof” (Asahi Kasei Kogyo Kabushiki Kaisha, priority 1979, dated 1983).

In this assay the test system is ulcer. The assay can be described thus: Anti-ulcer test (restraint and water immersion ulcer in rats, i.p.). The note with it: for inhibition in vivo at 50 mg/kg / inhibition in vivo at 25 mg/kg: Rattus norvegicus, ip, read-out: % Inhibition of Ulcer; for inhibition in vivo at 25 mg/kg: 25 mg/kg i.p. The format is in vivo, Male Wistar rats. On the procedure: The anti-ulcer and anti-edema activity of the compounds was evaluated in efficacy tests described below.
Male Wistar rats weighing about 150 g on average were not fed for 24 hours before the test. Then a solution or suspension of a predetermined concentration of the test compound in physiological saline was administered to them intraperitoneally. One hour after the administration,each rat was restrained in a net cage and submerged in a water both (21° C.) from the tail to xiphistrenun for 6 hours. Test animals were then killed (by dislocation of the cervical vertebrae), the stomach was removed and incised along the curvatura ventriculi major, and the inside wall of the stomach was pathologically examined under microscopic observation. Rats in which the occurrence of an ulceration was substantially not observed were rated O, while others were rated 0.5, 1, 2 or 3, depending on the severity of the ulcer development. The percent inhibition of ulcer was calculated by the following formula: [formula]

Where two headings read alike, the source gives them in different places.

As for `CC(C)CC(NC(=N)C(O)C(O)C(N)CC(=O)O)C1Cc2cccc(O)c2C(=O)O1` (centres unmarked) [AI-77-A], the “anti-ulcer activity (in words)” value (rat, in vivo) is on record as “high anti-ulcer activity”.

For the compound `CC(=O)OC(C(=O)NC(CC(C)C)C1Cc2cccc(O)c2C(=O)O1)C1OC(=O)CC1NC(=O)c1ccc(OCCC(C)C)cc1` (centres unmarked) [IIIa-2-9], the inhibition in vivo at 50 mg/kg (50 mg/kg i.p.) worked out at 33%.

`CCOc1cccc2c1C(=O)OC(C(CC(C)C)NC(=O)C(O)C1OC(=O)CC1NC(=O)c1cccn1C)C2` (centres unmarked) [IIIa-5-29]: under “50 mg/kg i.p.”, the inhibition in vivo at 50 mg/kg was 33%.

Consider `CCCCCCCCCCCCCCCCCCNC1CC(=O)OC1C(O)C(=O)NC(CC(C)C)C1Cc2cccc(OC(C)=O)c2C(=O)O1` (centres unmarked) [IIIa-21-3], for which the inhibition in vivo at 50 mg/kg (50 mg/kg i.p.) amounted to 66%.

Regarding `CCCCCCCCCCCCCCCCCCNC(CC(N)=O)C(O)C(O)C(=O)NC(CC(C)C)C1Cc2cccc(O)c2C(=O)O1` (centres unmarked) [VII-10-5], the inhibition in vivo at 25 mg/kg was 89%.

For the compound `CC(C)CC(NC(=O)C(O)C1OC(=O)CC1NC(=O)CCCBr)C1Cc2cccc(O)c2C(=O)O1` (centres unmarked) [IIIa-1-31], where the note is “50 mg/kg i.p.”, the inhibition in vivo at 50 mg/kg was 66%.

Take `CCCCCCCCC=CCCCCCCCCOc1cccc2c1C(=O)OC(C(CC(C)C)NC(=O)C(O)C1OC(=O)CC1N)C2` (centres unmarked) [IIIa-13-7]: the inhibition in vivo at 50 mg/kg (50 mg/kg i.p.) was found to be 72%.

As to `CC(=O)N1CCC(CNC(=O)CC(N)C(O)C(O)C(=O)NC(CC(C)C)C2Cc3cccc(O)c3C(=O)O2)CC1` (centres unmarked) [VII-1-17], the inhibition in vivo at 25 mg/kg came out at 83%.

Regarding `CCCCCCCC(=O)NC1CC(=O)OC1C(O)C(=O)NC(CC(C)C)C1Cc2cccc(O)c2C(=O)O1` (centres unmarked) [IIIa-1-9], the inhibition in vivo at 50 mg/kg (50 mg/kg i.p.) stood at 66%.

`CC(C)CC(NC(=O)C(O)C1C=CC(=O)O1)C1Cc2cccc(OCCCl)c2C(=O)O1` (centres unmarked) [IVa-4-6]: the inhibition in vivo at 50 mg/kg (50 mg/kg i.p.) was found to be 44%.

On to `CCCCCCCCCCCCCCCCCCNC1CC(=O)OC1C(OC(C)=O)C(=O)NC(CC(C)C)C1Cc2cccc(O)c2C(=O)O1` (centres unmarked) [IIIa-19-3], for which, where the note is “50 mg/kg i.p.”, the inhibition in vivo at 50 mg/kg was 56%.

On to `CC(=O)n1cccc1C(=O)NC1CC(=O)OC1C(O)C(=O)NC(CC(C)C)C1Cc2cccc(O)c2C(=O)O1` (centres unmarked) [IIIa-1-28], for which, for the setting “50 mg/kg i.p.”, the inhibition in vivo at 50 mg/kg is 66%.

In the case of `Cc1ccc(NC(=O)CC(N)C(O)C(O)C(=O)NC(CC(C)C)C2Cc3cccc(O)c3C(=O)O2)cc1` (centres unmarked) [VII-1-43], the inhibition in vivo at 25 mg/kg was found to be 94%.

Regarding `CC(C)CCc1ccc(COc2cccc3c2C(=O)OC(C(CC(C)C)NC(=O)C(O)C2C=CC(=O)O2)C3)cc1` (centres unmarked) [IVa-4-22], the inhibition in vivo at 50 mg/kg (50 mg/kg i.p.) was found to be 33%.

Take `CCOc1cccc2c1C(=O)OC(C(CC(C)C)NC(=O)C(O)C1OC(=O)CC1NC(=O)CCCCC(C)CC)C2` (centres unmarked) [IIIa-5-55]: the inhibition in vivo at 50 mg/kg (50 mg/kg i.p.) is 33%.

Regarding `CCCOC(C(=O)NC(CC(C)C)C1Cc2cccc(OCC)c2C(=O)O1)C1OC(=O)CC1N` (centres unmarked) [IIIa-15-8], the inhibition in vivo at 50 mg/kg (50 mg/kg i.p.) was 56%.

Regarding `CNC1CC(=O)OC1C(O)C(=O)NC(CC(C)C)C1Cc2cccc(OC)c2C(=O)O1` (centres unmarked) [IIIa-31-1], the inhibition in vivo at 50 mg/kg (50 mg/kg i.p.) was determined as 94%.

In the case of `CC(=O)Oc1cccc2c1C(=O)OC(C(CC(C)C)NC(=O)C(OC(C)=O)C1OC(=O)CC1NC(=O)CC(C)C)C2` (centres unmarked) [IIIa-3-3], the inhibition in vivo at 50 mg/kg (50 mg/kg i.p.) amounted to 33%.

For `CC(=O)NC(CC(N)=O)C(O)C(O)C(=O)NC(CC(C)C)C1Cc2cccc(O)c2C(=O)O1` (centres unmarked) [VII-28-1], the inhibition in vivo at 25 mg/kg turned out to be 78%.

In the case of `CCNC(CC(N)=O)C(O)C(OC)C(=O)NC(CC(C)C)C1Cc2cccc(OC(=O)C(C)C)c2C(=O)O1` (centres unmarked) [VII-18-3], the inhibition in vivo at 25 mg/kg is 56%.

Turning to `CC(C)CC(NC(=NC(C)C)C(O)C(O)C(N)CC(=O)O)C1Cc2cccc(O)c2C(=O)O1` (centres unmarked) [Vb-1-41], the inhibition in vivo at 50 mg/kg is 89%.

Turning to `CCNC(CC(N)=O)C(O)C(O)C(=O)NC(CC(C)C)C1Cc2cccc(OC)c2C(=O)O1` (centres unmarked) [VII-14-2], the inhibition in vivo at 25 mg/kg is 83%.

`CCOc1cccc2c1C(=O)OC(C(CC(C)C)NC(=O)C(OC(C)=O)C1OC(=O)CC1NC(=O)CC(C)OC)C2` (centres unmarked) [IIIa-6-7]: the inhibition in vivo at 50 mg/kg (50 mg/kg i.p.) came out at 33%.

On to `C#CCNC1CC(=O)OC1C(O)C(=O)NC(CC(C)C)C1Cc2cccc(OCC)c2C(=O)O1` (centres unmarked) [IIIa-22-47], for which the inhibition in vivo at 50 mg/kg (50 mg/kg i.p.) amounted to 94%.

In the case of `CCCCCSCC(=O)NC1CC(=O)OC1C(O)C(=O)NC(CC(C)C)C1Cc2cccc(O)c2C(=O)O1` (centres unmarked) [IIIa-1-45], where the note is “50 mg/kg i.p.”, the inhibition in vivo at 50 mg/kg worked out at 66%.

For `CCCC(=O)OC(C(=O)NC(CC(C)C)C1Cc2cccc(O)c2C(=O)O1)C1C=CC(=O)O1` (centres unmarked) [IVa-1-3], for the setting “50 mg/kg i.p.”, the inhibition in vivo at 50 mg/kg worked out at 44%.

For the compound `CC(C)CC(NC(=O)C(O)C1C=CC(=O)O1)C1Cc2cccc(OCc3ccco3)c2C(=O)O1` (centres unmarked) [IVa-4-13], the inhibition in vivo at 50 mg/kg (50 mg/kg i.p.) turned out to be 33%.

Turning to `CC(C)CC(NC(=O)C(O)C1C=CC(=O)O1)C1Cc2cccc(OCC3CCCCC3)c2C(=O)O1` (centres unmarked) [IVa-4-11], the inhibition in vivo at 50 mg/kg (50 mg/kg i.p.) was 33%.

For `CCOc1cccc2c1C(=O)OC(C(CC(C)C)NC(=O)C(O)C1OC(=O)CC1NC(=O)CCCBr)C2` (centres unmarked) [IIIa-5-31], under “50 mg/kg i.p.”, the inhibition in vivo at 50 mg/kg is 44%.

Regarding `CCCCCCCCCCCCCCCCCC(=O)Oc1cccc2c1C(=O)OC(C(CC(C)C)NC(=O)C(OCCCC)C1OC(=O)CC1NCC)C2` (centres unmarked) [IIIa-26-5], the inhibition in vivo at 50 mg/kg (50 mg/kg i.p.) was determined as 56%.

For the compound `CCCCCCCCCCCCCCCCCCOc1cccc2c1C(=O)OC(C(CC(C)C)NC(=O)C(O)C1OC(=O)CC1NCCCC)C2` (centres unmarked) [IIIa-22-78], the inhibition in vivo at 50 mg/kg (50 mg/kg i.p.) was determined as 72%.

For the compound `CC(C)CC(NC(=O)C(O)C1OC(=O)CC1NC(=O)CCCCCCCCCO)C1Cc2cccc(O)c2C(=O)O1` (centres unmarked) [IIIa-1-78], the inhibition in vivo at 50 mg/kg (50 mg/kg i.p.) came out at 66%.

For the compound `CCOc1cccc2c1C(=O)OC(C(CC(C)C)NC(=O)C(O)C1OC(=O)CC1NC(=O)CCCCCCCCCO)C2` (centres unmarked) [IIIa-5-75], the inhibition in vivo at 50 mg/kg (50 mg/kg i.p.) is 33%.

Turning to `CCNC(CC(=O)O)C(O)C(O)C(=N)NC(CC(C)C)C1Cc2cccc(O)c2C(=O)O1` (centres unmarked) [Vb-10-1], the inhibition in vivo at 50 mg/kg (50 mg/kg i.p.) was 94%.

Turning to `CCOc1cccc2c1C(=O)OC(C(CC(C)C)NC(=O)C(O)C1OC(=O)CC1NC(=O)c1ccco1)C2` (centres unmarked) [IIIa-5-22], under “50 mg/kg i.p.”, the inhibition in vivo at 50 mg/kg was 44%.

As for `CCCCCC(=O)OC(C(=O)NC(CC(C)C)C1Cc2cccc(O)c2C(=O)O1)C1C=CC(=O)O1` (centres unmarked) [IVa-1-7], the inhibition in vivo at 50 mg/kg (50 mg/kg i.p.) worked out at 44%.

Turning to `CCCCCCCCCCCCCCCCCCNC(=O)C=CC(O)C(O)C(=O)NC(CC(C)C)C1Cc2cccc(O)c2C(=O)O1` (centres unmarked) [VIII-1-3], where the note is “50 mg/kg i.p.”, the inhibition in vivo at 50 mg/kg amounted to 44%.

Consider `CCCCNC1CC(=O)OC1C(O)C(=O)NC(CC(C)C)C1Cc2cccc(OCCCl)c2C(=O)O1` (centres unmarked) [IIIa-22-79], for which the inhibition in vivo at 50 mg/kg (50 mg/kg i.p.) came to 94%.

Turning to `CCCCC(=O)OC(C(=O)NC(CC(C)C)C1Cc2cccc(O)c2C(=O)O1)C1C=CC(=O)O1` (centres unmarked) [IVa-1-6], for the setting “50 mg/kg i.p.”, the inhibition in vivo at 50 mg/kg amounted to 44%.

Turning to `CC(C)CC(NC(=O)C(O)C(O)C(N)CC(=O)NCCN1CCCCC1)C1Cc2cccc(O)c2C(=O)O1` (centres unmarked) [VII-1-46], the inhibition in vivo at 25 mg/kg worked out at 94%.

For the compound `CC(C)CC(NC(=O)C(O)C1OC(=O)CC1NCC(Cl)(Cl)Cl)C1Cc2cccc(O)c2C(=O)O1` (centres unmarked) [IIIa-18-12], where the note is “50 mg/kg i.p.”, the inhibition in vivo at 50 mg/kg stood at 94%.

Take `CC(C)CC(NC(=O)C(OC(=O)C(Cl)(Cl)Cl)C1OC(=O)CC1N)C1Cc2cccc(OC(=O)C(Cl)(Cl)Cl)c2C(=O)O1` (centres unmarked) [IIIa-11-4]: the inhibition in vivo at 50 mg/kg came out at 56%.

For the compound `CCCCCCCCCCCCCCCCCCNC(CC(N)=O)C(O)C(OCCCC)C(=O)NC(CC(C)C)C1Cc2cccc(O)c2C(=O)O1` (centres unmarked) [VII-17-2], the inhibition in vivo at 25 mg/kg was 56%.

`CCOc1cccc2c1C(=O)OC(C(CC(C)C)NC(=O)C(OC(=O)C(C)C)C(O)C(CC(N)=O)NC)C2` (centres unmarked) [VII-24-2]: the inhibition in vivo at 25 mg/kg stood at 66%.
